Reference: ChEMBL document CHEMBL1201862, “PubChem BioAssay data set” (2004)
Where a name gives a salt, the structure may show the parent alone.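 Tested at 5 concentrations; 48 h exposure; 96-well plates; endpoints linearly interpolated, else capped at highest concentration. GI50: concentration for 50% inhibition of growth.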 The source made the active and inactive calls. Cut-off read from the data, not from the text of the source: active = GI50 up to about 1.1 µM and inactive = higher.

Experiments:
Assay in all cases: NCI anticancer screen, dose series, 48 h
NCI/ADR-RES = test system: NCI/ADR-RES
RXF 393 = test system: RXF 393
SW-620 = test system: SW-620
Hs-578T = test system: Hs-578T
MDA-N = test system: MDA-N
MDA-MB-231 = test system: MDA-MB-231
PC-3 = test system: PC-3
BT-549 = test system: BT-549
SK-MEL-5 = test system: SK-MEL-5
DU-145 = test system: DU-145
NCI-H522 = test system: NCI-H522
OVCAR-4 = test system: OVCAR-4
SF-268 = test system: SF-268
MCF7 = test system: MCF7
OVCAR-8 = test system: OVCAR-8
CCRF-CEM = test system: CCRF-CEM
T47D = test system: T47D
MDA-MB-435 = test system: MDA-MB-435
SNB-78 = test system: SNB-78
SR = test system: SR

Measured: GI50

CC[C@@H]1CN2CCC1C[C@@H]2C(O)c1ccnc2ccc(OCCN3CCN(CCOc4ccc5nccc(C(O)[C@@H]6C[C@@H]7CCN6C[C@@H]7CC)c5c4)CC3)cc12 (stereo partly drawn)
inactive: NCI/ADR-RES > 100 µM | RXF 393 16.5 µM | SW-620 21.8 µM | Hs-578T 15.3 µM | MDA-N 12.9 µM | MDA-MB-231 15.9 µM | PC-3 15.9 µM | BT-549 19.1 µM | SK-MEL-5 15 µM | DU-145 17.5 µM | NCI-H522 12 µM | OVCAR-4 19.8 µM | SF-268 18.4 µM | MCF7 15.5 µM | OVCAR-8 19.3 µM | CCRF-CEM 4.45 µM | T47D 19.7 µM | MDA-MB-435 13.8 µM

CC(=O)Oc1ccc(C2COc3cc(OC(C)=O)c(OC(C)=O)cc3C2)cc1 (stereo not drawn)
inactive: NCI/ADR-RES 20.8 µM | RXF 393 13.6 µM | SW-620 17.4 µM | SK-MEL-5 2.95 µM | NCI-H522 2.8 µM | OVCAR-4 14.4 µM | SNB-78 24.3 µM | SF-268 13.7 µM | MCF7 19 µM | OVCAR-8 18 µM | CCRF-CEM 7.57 µM

Cc1ccc(S(=O)(=O)OC2=C/C(=N\c3onc(C)c3C)c3ccccc3C2=O)cc1
inactive: NCI/ADR-RES 25.2 µM | SW-620 28.2 µM | Hs-578T 38.5 µM | MDA-N 25.2 µM | MDA-MB-231 19.7 µM | PC-3 20.6 µM | BT-549 33.7 µM | SK-MEL-5 18.3 µM | SR 3.01 µM | DU-145 51.6 µM | NCI-H522 7.46 µM | OVCAR-4 16.4 µM | SF-268 23.7 µM | MCF7 17.3 µM | OVCAR-8 18.3 µM | T47D 24.2 µM | MDA-MB-435 16.1 µM

N#Cc1c(-c2nc3ccccc3s2)c(=O)oc2cc(O)ccc12
inactive: NCI/ADR-RES 32.4 µM | RXF 393 43.6 µM | SW-620 30.8 µM | Hs-578T 20 µM | MDA-N 33.1 µM | MDA-MB-231 22.9 µM | PC-3 34.4 µM | BT-549 16.7 µM | SK-MEL-5 10.2 µM | SR 37.3 µM | DU-145 22.6 µM | NCI-H522 13.2 µM | OVCAR-4 23.1 µM | SF-268 48.6 µM | MCF7 34.5 µM | OVCAR-8 32.1 µM | CCRF-CEM 25.4 µM | T47D 17.7 µM | MDA-MB-435 27.8 µM

O[C@]12c3ccccc3C1CCCCC2N1CCOCC1 (stereo partly drawn)
inactive: RXF 393 > 100 µM | SW-620 > 100 µM | SK-MEL-5 > 100 µM | SR > 100 µM | NCI-H522 > 100 µM | OVCAR-4 > 100 µM | SNB-78 > 100 µM | SF-268 > 100 µM | OVCAR-8 > 100 µM | CCRF-CEM > 100 µM

C#CC(O)(c1nc2ccccc2s1)c1nc2ccccc2s1
inactive: NCI/ADR-RES 26.2 µM | RXF 393 18.6 µM | SW-620 33.7 µM | Hs-578T 36.4 µM | MDA-N 21.2 µM | MDA-MB-231 15.7 µM | PC-3 19 µM | BT-549 16.6 µM | SK-MEL-5 15.6 µM | DU-145 26.4 µM | NCI-H522 17.6 µM | OVCAR-4 25.8 µM | SF-268 28.5 µM | MCF7 22.2 µM | OVCAR-8 22 µM | CCRF-CEM 27.4 µM | T47D 13.8 µM | MDA-MB-435 23.1 µM

O=C(O)CCCCn1ccc(=O)[nH]c1=O
inactive: NCI/ADR-RES > 100 µM | RXF 393 > 100 µM | SW-620 > 100 µM | Hs-578T > 100 µM | MDA-N > 100 µM | MDA-MB-231 > 100 µM | PC-3 > 100 µM | BT-549 > 100 µM | SK-MEL-5 > 100 µM | SR > 100 µM | DU-145 > 100 µM | NCI-H522 > 100 µM | OVCAR-4 > 100 µM | SF-268 > 100 µM | MCF7 > 100 µM | OVCAR-8 > 100 µM | CCRF-CEM > 100 µM | T47D > 100 µM | MDA-MB-435 > 100 µM

COC(=O)C1CC2(CC3=C1CCCC3)OCCO2 (stereo not drawn)
inactive: RXF 393 > 100 µM | SW-620 > 100 µM | SK-MEL-5 > 100 µM | NCI-H522 > 100 µM | OVCAR-4 > 100 µM | SNB-78 > 100 µM | SF-268 > 100 µM | OVCAR-8 > 100 µM | CCRF-CEM > 100 µM

C#C[C@@H](OC(=O)c1ccc([N+](=O)[O-])cc1)[C@@H]1C[C@H]2O[C@@H]([C@H](C/C=C/CC)OC(=O)c3ccc([N+](=O)[O-])cc3)C[C@H]2O1
inactive: NCI/ADR-RES > 100 µM | RXF 393 > 100 µM | SW-620 > 100 µM | Hs-578T > 100 µM | MDA-N > 100 µM | MDA-MB-231 > 100 µM | PC-3 > 100 µM | BT-549 > 100 µM | SK-MEL-5 > 100 µM | DU-145 > 100 µM | NCI-H522 32.6 µM | OVCAR-4 > 100 µM | SF-268 > 100 µM | OVCAR-8 > 100 µM | CCRF-CEM > 100 µM | T47D > 100 µM | MDA-MB-435 > 100 µM

CNCCC=C1c2ccccc2CCc2ccccc21 [NORTRIPTYLINE HYDROCHLORIDE]
inactive: NCI/ADR-RES 15.7 µM | RXF 393 9.35 µM | SW-620 17.7 µM | Hs-578T 19.6 µM | MDA-N 15.6 µM | MDA-MB-231 > 37 µM | PC-3 14.3 µM | BT-549 15.5 µM | SK-MEL-5 11.6 µM | SR 12.1 µM | DU-145 14.5 µM | NCI-H522 14.6 µM | OVCAR-4 14 µM | SF-268 15.5 µM | MCF7 15.7 µM | OVCAR-8 17 µM | CCRF-CEM 12.5 µM | T47D 9.23 µM | MDA-MB-435 13.5 µM

O=C(N[C@H]1c2ccsc2/C(=N/O)[C@H]1O)C(F)(F)F
inactive: NCI/ADR-RES > 100 µM | RXF 393 > 100 µM | SW-620 > 100 µM | Hs-578T > 100 µM | MDA-N > 100 µM | MDA-MB-231 > 10 µM | PC-3 > 100 µM | BT-549 > 100 µM | SK-MEL-5 > 100 µM | SR > 100 µM | DU-145 > 100 µM | SF-268 > 100 µM | MCF7 > 100 µM | OVCAR-8 > 100 µM | CCRF-CEM > 100 µM | T47D > 100 µM | MDA-MB-435 > 100 µM

C/C(=C\c1ccccc1)C(=O)CCN1CCOCC1
inactive: NCI/ADR-RES 21.8 µM | RXF 393 19.7 µM | SW-620 16.5 µM | SK-MEL-5 33 µM | NCI-H522 7.94 µM | OVCAR-4 18 µM | SNB-78 15.6 µM | SF-268 32.1 µM | MCF7 7.87 µM | OVCAR-8 20.5 µM | CCRF-CEM 30.6 µM

CC1=N/C(=C\c2ccc([N+](=O)[O-])cc2)C(=O)O1
inactive: RXF 393 > 100 µM | SW-620 > 100 µM | SK-MEL-5 > 100 µM | NCI-H522 > 100 µM | OVCAR-4 > 100 µM | SNB-78 > 100 µM | SF-268 > 100 µM | OVCAR-8 > 100 µM

C1=C2C3=[N+](CCCCC3)CC2Cc2ccsc21 (stereo not drawn)
inactive: NCI/ADR-RES > 100 µM | RXF 393 > 100 µM | SW-620 93.5 µM | Hs-578T > 100 µM | MDA-N > 100 µM | MDA-MB-231 > 100 µM | PC-3 39.5 µM | BT-549 51.2 µM | SK-MEL-5 53 µM | DU-145 > 100 µM | NCI-H522 39.7 µM | OVCAR-4 43.4 µM | SF-268 76.2 µM | MCF7 50.1 µM | OVCAR-8 76.6 µM | CCRF-CEM > 100 µM | T47D 63.5 µM | MDA-MB-435 60.3 µM

CC(C)[C@H]1NC(=O)[C@H]2N=C(O[C@@H]2C)[C@@H]2CCCN2C(=O)[C@H](Cc2ccccc2)NC(=O)[C@@H]2COC(=N2)[C@@H](Cc2ccccc2)NC(=O)[C@@H]2COC1=N2
inactive: NCI/ADR-RES > 100 µM | RXF 393 > 100 µM | SW-620 > 100 µM | Hs-578T > 100 µM | MDA-N > 100 µM | MDA-MB-231 > 100 µM | PC-3 > 100 µM | BT-549 > 100 µM | SK-MEL-5 > 100 µM | DU-145 > 100 µM | NCI-H522 > 100 µM | OVCAR-4 > 100 µM | SF-268 > 100 µM | MCF7 > 100 µM | OVCAR-8 > 100 µM | CCRF-CEM > 100 µM | T47D > 100 µM | MDA-MB-435 > 100 µM

NC1c2ccccc2Nc2ccccc21
inactive: RXF 393 6.24 µM | SW-620 3.66 µM | SK-MEL-5 5.28 µM | SR 2.64 µM | NCI-H522 2.15 µM | SNB-78 9.1 µM | SF-268 3.08 µM | OVCAR-8 4.34 µM | CCRF-CEM 5.2 µM
